Laboratory results taken from ChEMBL document CHEMBL1275557, “First countrywide survey of acquired metallo-beta-lactamases in gram-negative pathogens in Italy” (2008).
In brackets after ≈: the same amount, converted by molar mass.

How the values were obtained:
Assay type in all cases: functional
[1] = test system: Pseudomonas aeruginosa; assay: Antibacterial activity against VIM-1 producing Pseudomonas aeruginosa clone A2 isolate NA-14X-26 by Etest method
[2] = test system: Pseudomonas aeruginosa; assay: Antibacterial activity against VIM-1 producing Pseudomonas aeruginosa clone A2 isolate NA-14X-32 by Etest method in presence of Tazobactam
[3] = test system: Pseudomonas aeruginosa; assay: Antibacterial activity against VIM-1 producing Pseudomonas aeruginosa clone A2 isolate NA-14X-21 by Etest method in presence of Tazobactam
[4] = test system: Pseudomonas aeruginosa; assay: Antibacterial activity against VIM-1 producing Pseudomonas aeruginosa clone F isolate RM-11X-09 by Etest method in presence of Tazobactam
[5] = test system: Pseudomonas aeruginosa; assay: Antibacterial activity against metallo-beta-lactamase positive Pseudomonas aeruginosa assessed as percent susceptible isolates by Etest method in presence of Tazobactam
[6] = test system: Pseudomonas aeruginosa; assay: Antibacterial activity against VIM-2 producing Pseudomonas aeruginosa clone B1 isolate SS-09X-45 by Etest method in presence of Tazobactam
[7] = test system: Pseudomonas aeruginosa; assay: Antibacterial activity against VIM-1 producing Pseudomonas aeruginosa clone A1 isolate FG-17X-14 by Etest method
[8] = test system: Pseudomonas aeruginosa; assay: Antibacterial activity against IMP-13 producing Pseudomonas aeruginosa clone C1 isolate AV-13X-28 by Etest method in presence of Tazobactam
[9] = test system: Pseudomonas aeruginosa; assay: Antibacterial activity against VIM-1 producing Pseudomonas aeruginosa clone E isolate VA-06X-29 by Etest method in presence of Tazobactam
[10] = test system: Pseudomonas aeruginosa; assay: Antibacterial activity against VIM-1 producing Pseudomonas aeruginosa clone A1 isolate FG-17X-14 by Etest method in presence of Tazobactam
[11] = test system: Pseudomonas aeruginosa; assay: Antibacterial activity against VIM-2 producing Pseudomonas aeruginosa clone B3 isolate PV-05X-07 by Etest method
[12] = test system: Pseudomonas aeruginosa; assay: Antibacterial activity against VIM-2 producing Pseudomonas aeruginosa clone B2 isolate VA-06X-20 by Etest method in presence of Tazobactam
[13] = test system: Pseudomonas aeruginosa; assay: Antibacterial activity against IMP-13 producing Pseudomonas aeruginosa clone C2 isolate NA-14X-10 by Etest method
[14] = test system: Pseudomonas aeruginosa; assay: Antibacterial activity against VIM-1 producing Pseudomonas aeruginosa clone A2 isolate NA-14X-26 by Etest method in presence of Tazobactam
[15] = test system: Pseudomonas aeruginosa; assay: Antibacterial activity against VIM-1 producing Pseudomonas aeruginosa clone D2 isolate VA-06X-16 by Etest method in presence of Tazobactam
[16] = test system: Enterobacter cloacae; assay: Antibacterial activity against VIM-1 producing Enterobacter cloacae isolate TO-16X-51 by Etest method
[17] = test system: Pseudomonas aeruginosa; assay: Antibacterial activity against VIM-1 producing Pseudomonas aeruginosa clone A3 isolate FG-17X-08 by Etest method in presence of Tazobactam
[18] = test system: Pseudomonas aeruginosa; assay: Antibacterial activity against VIM-1 producing Pseudomonas aeruginosa clone D1 isolate VA-06X-63 by Etest method in presence of Tazobactam
[19] = test system: Pseudomonas aeruginosa; assay: Antibacterial activity against VIM-1 producing Pseudomonas aeruginosa clone D2 isolate VA-06X-17 by Etest method in presence of Tazobactam
[20] = test system: Pseudomonas aeruginosa; assay: Antibacterial activity against VIM-1 producing Pseudomonas aeruginosa clone D2 isolate VA-06X-17 by Etest method
[21] = test system: Pseudomonas aeruginosa; assay: Antibacterial activity against VIM-2 producing Pseudomonas aeruginosa clone B3 isolate PV-05X-02 by Etest method
[22] = test system: Pseudomonas aeruginosa; assay: Antibacterial activity against VIM-2 producing Pseudomonas aeruginosa clone B3 isolate PV-05X-07 by Etest method in presence of Tazobactam
[23] = test system: Pseudomonas aeruginosa; assay: Antibacterial activity against VIM-2 producing Pseudomonas aeruginosa clone B3 isolate PV-05X-02 by Etest method in presence of Tazobactam
[24] = test system: Pseudomonas aeruginosa; assay: Antibacterial activity against IMP-13 producing Pseudomonas aeruginosa clone C1 isolate AV-13X-28 by Etest method
[25] = test system: Pseudomonas aeruginosa; assay: Antibacterial activity against VIM-1 producing Pseudomonas aeruginosa clone F isolate RM-11X-09 by Etest method
[26] = test system: Pseudomonas aeruginosa; assay: Antibacterial activity against VIM-1 producing Pseudomonas aeruginosa clone E isolate VA-06X-29 by Etest method
[27] = test system: Pseudomonas aeruginosa; assay: Antibacterial activity against VIM-1 producing Pseudomonas aeruginosa clone D3 isolate VA-06X-65 by Etest method in presence of Tazobactam
[28] = test system: Pseudomonas aeruginosa; assay: Antibacterial activity against IMP-13 producing Pseudomonas aeruginosa clone C2 isolate NA-14X-02 by Etest method in presence of Tazobactam
[29] = test system: Pseudomonas aeruginosa; assay: Antibacterial activity against VIM-2 producing Pseudomonas aeruginosa clone B2 isolate VA-06X-38 by Etest method in presence of Tazobactam
[30] = test system: Pseudomonas aeruginosa; assay: Antibacterial activity against VIM-1 producing Pseudomonas aeruginosa clone D isolate VA-06X-69 by Etest method in presence of Tazobactam
[31] = test system: Pseudomonas aeruginosa; assay: Antibacterial activity against VIM-1 producing Pseudomonas aeruginosa clone G isolate NA-14X-13 by Etest method
[32] = test system: Pseudomonas aeruginosa; assay: Antibacterial activity against VIM-2 producing Pseudomonas aeruginosa clone B2 isolate VA-06X-38 by Etest method
[33] = test system: Pseudomonas aeruginosa; assay: Antibacterial activity against VIM-2 producing Pseudomonas aeruginosa clone B3 isolate CR-04X-14 by Etest method in presence of Tazobactam
[34] = test system: Pseudomonas aeruginosa; assay: Antibacterial activity against VIM-1 producing Pseudomonas aeruginosa clone D isolate VA-06X-69 by Etest method
[35] = test system: Pseudomonas aeruginosa; assay: Antibacterial activity against IMP-13 producing Pseudomonas aeruginosa clone C2 isolate NA-14X-11 by Etest method in presence of Tazobactam
[36] = test system: Pseudomonas aeruginosa; assay: Antibacterial activity against VIM-2 producing Pseudomonas aeruginosa clone B3 isolate CR-04X-14 by Etest method
[37] = test system: Pseudomonas aeruginosa; assay: Antibacterial activity against VIM-2 producing Pseudomonas aeruginosa clone B1 isolate SS-09X-45 by Etest method
[38] = test system: Pseudomonas aeruginosa; assay: Antibacterial activity against IMP-13 producing Pseudomonas aeruginosa clone C3 isolate PG-12X-03 by Etest method in presence of Tazobactam
[39] = test system: Pseudomonas aeruginosa; assay: Antibacterial activity against VIM-1 producing Pseudomonas aeruginosa clone A3 isolate FG-17X-08 by Etest method
[40] = test system: Pseudomonas aeruginosa; assay: Antibacterial activity against IMP-13 producing Pseudomonas aeruginosa clone C2 isolate NA-14X-02 by Etest method
[41] = test system: Pseudomonas aeruginosa; assay: Antibacterial activity against VIM-1 producing Pseudomonas aeruginosa clone D3 isolate VA-06X-65 by Etest method
[42] = test system: Pseudomonas aeruginosa; assay: Antibacterial activity against VIM-1 producing Pseudomonas aeruginosa clone D2 isolate VA-06X-16 by Etest method
[43] = test system: Pseudomonas aeruginosa; assay: Antibacterial activity against VIM-2 producing Pseudomonas aeruginosa clone B2 isolate VA-06X-28 by Etest method
[44] = test system: Pseudomonas aeruginosa; assay: Antibacterial activity against IMP-13 producing Pseudomonas aeruginosa clone C2 isolate NA-14X-12 by Etest method in presence of Tazobactam
[45] = test system: Pseudomonas aeruginosa; assay: Antibacterial activity against IMP-13 producing Pseudomonas aeruginosa clone C2 isolate NA-14X-10 by Etest method in presence of Tazobactam
[46] = test system: Pseudomonas aeruginosa; assay: Antibacterial activity against IMP-13 producing Pseudomonas aeruginosa clone C2 isolate NA-14X-11 by Etest method
[47] = test system: Pseudomonas aeruginosa; assay: Antibacterial activity against VIM-1 producing Pseudomonas aeruginosa clone A3 isolate NA-14X-34 by Etest method
[48] = test system: Pseudomonas aeruginosa; assay: Antibacterial activity against IMP-13 producing Pseudomonas aeruginosa clone C3 isolate PG-12X-03 by Etest method
[49] = test system: Pseudomonas aeruginosa; assay: Antibacterial activity against VIM-1 producing Pseudomonas aeruginosa clone A2 isolate NA-14X-21 by Etest method
[50] = test system: Pseudomonas aeruginosa; assay: Antibacterial activity against VIM-1 producing Pseudomonas aeruginosa clone D4 isolate VA-06X-47 by Etest method
[51] = test system: Pseudomonas aeruginosa; assay: Antibacterial activity against IMP-13 producing Pseudomonas aeruginosa clone C2 isolate NA-14X-12 by Etest method
[52] = test system: Pseudomonas aeruginosa; assay: Antibacterial activity against VIM-1 producing Pseudomonas aeruginosa clone D4 isolate VA-06X-47 by Etest method in presence of Tazobactam
[53] = test system: Pseudomonas putida; assay: Antibacterial activity against VIM-1 producing Pseudomonas putida isolate RM-11X-11 by Etest method
[54] = test system: Pseudomonas aeruginosa; assay: Antibacterial activity against VIM-1 producing Pseudomonas aeruginosa clone A3 isolate NA-14X-34 by Etest method in presence of Tazobactam
[55] = test system: Pseudomonas aeruginosa; assay: Antibacterial activity against VIM-2 producing Pseudomonas aeruginosa clone B2 isolate VA-06X-20 by Etest method
[56] = test system: Pseudomonas putida; assay: Antibacterial activity against VIM-1 producing Pseudomonas putida isolate RM-11X-11 by Etest method in presence of Tazobactam
[57] = test system: Enterobacter cloacae; assay: Antibacterial activity against VIM-1 producing Enterobacter cloacae isolate TO-16X-51 by Etest method in presence of Tazobactam
[58] = test system: Pseudomonas aeruginosa; assay: Antibacterial activity against VIM-2 producing Pseudomonas aeruginosa clone B2 isolate VA-06X-28 by Etest method in presence of Tazobactam
[59] = test system: Pseudomonas aeruginosa; assay: Antibacterial activity against VIM-1 producing Pseudomonas aeruginosa clone D1 isolate VA-06X-63 by Etest method
[60] = test system: Pseudomonas aeruginosa; assay: Antibacterial activity against VIM-1 producing Pseudomonas aeruginosa clone G isolate NA-14X-13 by Etest method in presence of Tazobactam
[61] = test system: Pseudomonas aeruginosa; assay: Antibacterial activity against VIM-1 producing Pseudomonas aeruginosa clone A2 isolate NA-14X-32 by Etest method

SMILES: CCN1CCN(C(=O)N[C@@H](C(=O)N[C@@H]2C(=O)N3[C@@H]2SC(C)(C)[C@@H]3C(=O)O)c2ccccc2)C(=O)C1=O [PIPERACILLIN]
- MIC [1]: > 128 µg/mL
- MIC [2]: > 128 µg/mL
- MIC [3]: > 128 µg/mL
- MIC [4]: > 128 µg/mL
- Activity [5]: 39%
- MIC [6]: > 128 µg/mL
- MIC [7]: > 128 µg/mL
- MIC [8]: 16 µg/mL
- MIC [9]: > 128 µg/mL
- MIC [10]: > 128 µg/mL
- MIC [11]: 48 µg/mL (≈ 92.7 µM)
- MIC [12]: 48 µg/mL
- MIC [13]: 16 µg/mL (≈ 30.9 µM)
- MIC [14]: > 128 µg/mL
- MIC [15]: > 128 µg/mL
- MIC [16]: > 128 µg/mL
- MIC [17]: > 128 µg/mL
- MIC [18]: > 128 µg/mL
- MIC [19]: > 128 µg/mL
- MIC [20]: > 128 µg/mL
- MIC [21]: 48 µg/mL (≈ 92.7 µM)
- MIC [22]: 32 µg/mL
- MIC [23]: 32 µg/mL
- MIC [24]: 24 µg/mL (≈ 46.4 µM)
- MIC [25]: > 128 µg/mL
- MIC [26]: > 128 µg/mL
- MIC [27]: > 128 µg/mL
- MIC [28]: 16 µg/mL
- MIC [29]: 32 µg/mL
- MIC [30]: > 128 µg/mL
- MIC [31]: > 128 µg/mL
- MIC [32]: 32 µg/mL (≈ 61.8 µM)
- MIC [33]: > 128 µg/mL
- MIC [34]: > 128 µg/mL
- MIC [35]: 16 µg/mL
- MIC [36]: > 128 µg/mL
- MIC [37]: > 128 µg/mL
- MIC [38]: 16 µg/mL
- MIC [39]: > 128 µg/mL
- MIC [40]: 24 µg/mL (≈ 46.4 µM)
- MIC [41]: > 128 µg/mL
- MIC [42]: > 128 µg/mL
- MIC [43]: 64 µg/mL (≈ 124 µM)
- MIC [44]: 16 µg/mL
- MIC [45]: 16 µg/mL
- MIC [46]: 16 µg/mL (≈ 30.9 µM)
- MIC [47]: > 128 µg/mL
- MIC [48]: 16 µg/mL (≈ 30.9 µM)
- MIC [49]: > 128 µg/mL
- MIC [50]: > 128 µg/mL
- MIC [51]: 16 µg/mL (≈ 30.9 µM)
- MIC [52]: > 128 µg/mL
- MIC [53]: > 128 µg/mL
- MIC [54]: > 128 µg/mL
- MIC [55]: 64 µg/mL (≈ 124 µM)
- MIC [56]: > 128 µg/mL
- MIC [57]: > 128 µg/mL
- MIC [58]: 48 µg/mL
- MIC [59]: > 128 µg/mL
- MIC [60]: > 128 µg/mL
- MIC [61]: > 128 µg/mL
